Test results from PubChem BioAssay AID248 (DTP/NCI, 2004).
Where “and” joins values, the source holds several entries; their conditions need not be identical. Equal values may be shown once. Inconclusive results and toxic doses are left out. No stated cut-off is given here; in the data, active means T/C of 150% or more; inactive means T/C below 125%.

Tested on: L1210 leukemia ip in BDF1 mice, survival T/C
Assay: NCI In Vivo Anticancer Drug Screen. Data for tumor model L1210 Leukemia (intraperitoneal) in B6D2F1 (BDF1) mice
Settings: endpoint: mean survival time, higher = longer survival
In short: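 Tumor was transplanted into mice, which were then dosed with test compound or vehicle alone. Survival was recorded for each group, and the treated figure was expressed relative to the control figure.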

[1] = dose: 50.0 mg/kg/injection, schedule: Q01DX009 (ip), vehicle: saline with Tween-80
[2] = dose: 100.0 mg/kg/injection, schedule: Q04DX002 (ip), vehicle: saline with Tween-80
[3] = dose: 100.0 mg/kg/injection, schedule: Q01DX009 (ip), vehicle: Klucel (hydroxypropylcellulose) (HPC)
[4] = dose: 200.0 mg/kg/injection, schedule: Q01DX009 (ip), vehicle: Klucel (hydroxypropylcellulose) (HPC)
[5] = dose: 400.0 mg/kg/injection, schedule: Q01DX009 (ip), vehicle: Klucel (hydroxypropylcellulose) (HPC)
[6] = dose: 100.0 mg/kg/injection, schedule: Q04DX003 (ip), vehicle: saline with Tween-80
[7] = dose: 200.0 mg/kg/injection, schedule: Q04DX003 (ip), vehicle: saline with Tween-80
[8] = dose: 400.0 mg/kg/injection, schedule: Q04DX003 (ip), vehicle: saline with Tween-80
[9] = dose: 100.0 mg/kg/injection, schedule: Q04DX003 (ip), vehicle: saline
[10] = dose: 200.0 mg/kg/injection, schedule: Q04DX003 (ip), vehicle: saline
[11] = dose: 400.0 mg/kg/injection, schedule: Q04DX003 (ip), vehicle: saline
[12] = dose: 100.0 mg/kg/injection, schedule: Q01DX009 (ip), vehicle: saline with Tween-80
[13] = dose: 200.0 mg/kg/injection, schedule: Q01DX009 (ip), vehicle: saline with Tween-80
[14] = dose: 100.0 mg/kg/injection, schedule: Q01DX001 (ip), vehicle: saline
[15] = dose: 100.0 mg/kg/injection, schedule: Q01DX009 (ip), vehicle: saline
[16] = dose: 200.0 mg/kg/injection, schedule: Q01DX001 (ip), vehicle: saline
[17] = dose: 400.0 mg/kg/injection, schedule: Q01DX001 (ip), vehicle: saline
[18] = dose: 400.0 mg/kg/injection, schedule: Q01DX009 (ip), vehicle: saline with Tween-80
[19] = dose: 100.0 mg/kg/injection, schedule: Q04DX003 (ip), vehicle: Klucel (hydroxypropylcellulose) (HPC)
[20] = dose: 200.0 mg/kg/injection, schedule: Q04DX003 (ip), vehicle: Klucel (hydroxypropylcellulose) (HPC)
[21] = dose: 200.0 mg/kg/injection, schedule: Q04DX002 (ip), vehicle: saline with Tween-80
[22] = dose: 400.0 mg/kg/injection, schedule: Q04DX002 (ip), vehicle: saline with Tween-80

Measured: T/C

CC(=O)OCC1OC(N=C=S)C(OC(C)=O)C(OC(C)=O)C1OC(C)=O (stereo not drawn)
inactive: dose: 12.5 mg/kg/injection, schedule: Q01DX009 (ip), vehicle: saline with Tween-80 97 % of control | dose: 25.0 mg/kg/injection, schedule: Q01DX009 (ip), vehicle: saline with Tween-80 100 % of control | [1] 93 % of control

CCC[CH2][Sn]1([CH2]CCC)[O]C(=O)C[S]1
inactive: dose: 0.78 mg/kg/injection, schedule: Q04DX003 (ip), vehicle: saline 105 % of control | dose: 1.5 mg/kg/injection, schedule: Q01DX Z (ip), vehicle: saline 97 % of control | dose: 1.56 mg/kg/injection, schedule: Q01DX001 (ip), vehicle: acetone 96 % of control | dose: 1.56 mg/kg/injection, schedule: Q04DX003 (ip), vehicle: saline 109 % of control | dose: 2.5 mg/kg/injection, schedule: Q01DX009 (ip), vehicle: acetone 105 % of control | dose: 3.0 mg/kg/injection, schedule: Q01DX Z (ip), vehicle: saline 106 % of control | dose: 3.12 mg/kg/injection, schedule: Q01DX001 (ip), vehicle: acetone 104 % of control | dose: 3.12 mg/kg/injection, schedule: Q04DX003 (ip), vehicle: saline 109 % of control | dose: 4.6 mg/kg/injection, schedule: Q04DX003 (ip), vehicle: saline 107 % of control | dose: 6.0 mg/kg/injection, schedule: Q01DX Z (ip), vehicle: saline 90 % of control | dose: 6.25 mg/kg/injection, schedule: Q01DX001 (ip), vehicle: acetone 105 % of control | dose: 6.25 mg/kg/injection, schedule: Q04DX002 (ip), vehicle: saline with Tween-80 101 % of control | dose: 7.0 mg/kg/injection, schedule: Q04DX003 (ip), vehicle: saline 97 % of control | dose: 10.0 mg/kg/injection, schedule: Q04DX003 (ip), vehicle: saline 108 % of control | dose: 12.5 mg/kg/injection, schedule: Q04DX002 (ip), vehicle: saline with Tween-80 96 % of control | [2] 106 % of control

O=C1c2ccccc2C(=O)c2ccccc21
inactive: [3] 102 % of control | [4] 88 % of control | [5] 100 % of control

COc1cc(Nc2nc(N)ncc2[N+](=O)[O-])cc(OC)c1OC
inactive: [6] 92 % of control | [7] 87 % of control | [8] 88 % of control

CC(=O)Nc1ccc(P(=O)(O)O)cc1[N+](=O)[O-]
inactive: [9] 91 % of control | [10] 102 % of control | [11] 115 % of control

CC1CCC2(CC1)OCC(CCl)O2 (stereo not drawn)
inactive: dose: 222.0 mg/kg/injection, schedule: Q01DX Z (ip), vehicle: saline 107 % of control | dose: 333.0 mg/kg/injection, schedule: Q01DX Z (ip), vehicle: saline 110 % of control | dose: 500.0 mg/kg/injection, schedule: Q01DX Z (ip), vehicle: saline 113 % of control

C(=N\N(c1ccccc1)c1ccccc1)/c1ccc(/C=N/N(c2ccccc2)c2ccccc2)cc1
inactive: [3] 92 % of control | [4] 90 % of control | [5] 96 % of control

CCSc1cc(C(=O)O)cc([N+](=O)[O-])c1
inactive: [9] 104 % of control | [10] 93 % of control | [11] 94 % of control

CC(=O)OCCCCc1ccccc1
inactive: [1] 97 % of control | [12] 97 % of control | [13] 87 % of control

C=C(C)C1CC=C(C)CC1 (stereo not drawn)
inactive: [14] 111 % of control | [15] 91 % of control | [9] 110 % of control | [16] 105 % of control | [10] 97 % of control | [17] 111 % of control | [11] 97 % of control

CC(CP(=O)(c1ccccc1)c1ccccc1)C(=O)O (stereo not drawn)
inactive: [12] 98 % of control | [13] 97 % of control | [18] 98 % of control

O=CNc1ccc2c(c1)Cc1cc(Br)ccc1-2
inactive: dose: 50.0 mg/kg/injection, schedule: Q04DX003 (ip), vehicle: Klucel (hydroxypropylcellulose) (HPC) 97 % of control | [19] 101 % of control | [20] 97 % of control

CCC(=CCC1=C(O)c2ccccc2C(=O)C1=O)CC
inactive: dose: 25.0 mg/kg/injection, schedule: Q01DX009 (ip), vehicle: water 120 % of control | dose: 50.0 mg/kg/injection, schedule: Q01DX009 (ip), vehicle: water 97 % of control | dose: 100.0 mg/kg/injection, schedule: Q01DX001 (ip), vehicle: water 103 % of control | dose: 100.0 mg/kg/injection, schedule: Q01DX009 (ip), vehicle: water 100 % of control | dose: 200.0 mg/kg/injection, schedule: Q01DX009 (ip), vehicle: water 94 % of control

CC(C)(C)C1CCC(=N[N+](C)(C)C)CC1 (stereo not drawn)
inactive: [14] 104 % of control

NC(=O)CC1=NCCc2ccccc21
inactive: [14] 108 % of control | [16] 108 % of control

NC(N)=N/N=C\c1ccc(/C=N/N=C(N)N)cc1
inactive: dose: 60.0 mg/kg/injection, schedule: Q01DX Z (oral), vehicle: saline 103 % of control | dose: 120.0 mg/kg/injection, schedule: Q01DX Z (oral), vehicle: saline 108 % of control | dose: 240.0 mg/kg/injection, schedule: Q01DX Z (oral), vehicle: saline 101 % of control | dose: 480.0 mg/kg/injection, schedule: Q01DX Z (oral), vehicle: saline 108 % of control

CCCCCCCCP(=O)(CCCC)CCCCCCCC
inactive: dose: 25.0 mg/kg/injection, schedule: Q01DX001 (ip), vehicle: saline with Tween-80 100 % of control | dose: 50.0 mg/kg/injection, schedule: Q01DX001 (ip), vehicle: saline with Tween-80 101 % of control | dose: 100.0 mg/kg/injection, schedule: Q01DX001 (ip), vehicle: saline with Tween-80 100 % of control and 104 % of control

CC(CO)[CH2][Sn]([c]1ccccc1)([c]1ccccc1)[c]1ccccc1 (stereo not drawn)
inactive: [2] 98 % of control and 101 % of control | [21] 98 % of control | [22] 95 % of control and 98 % of control

CCOP(=O)(OCC)OCc1ccc(C)cc1
inactive: [6] 94 % of control | [7] 102 % of control | [8] 97 % of control

O=Cc1c(O)ccc2ccccc12
inactive: dose: 100.0 mg/kg/injection, schedule: Q04DX002 (ip), vehicle: Klucel (hydroxypropylcellulose) (HPC) 90 % of control | dose: 200.0 mg/kg/injection, schedule: Q04DX002 (ip), vehicle: Klucel (hydroxypropylcellulose) (HPC) 93 % of control | dose: 400.0 mg/kg/injection, schedule: Q04DX002 (ip), vehicle: Klucel (hydroxypropylcellulose) (HPC) 96 % of control

COc1cc2c(cc1O)C(OC)(OC)CCCC2
inactive: [1] 96 % of control | [12] 96 % of control | [13] 93 % of control

Cc1c(Cl)cccc1NC(=O)c1cccc(C(=O)Nc2cccc(Cl)c2C)c1
inactive: [3] 112 % of control | [19] 91 % of control | [4] 93 % of control | [20] 90 % of control | [5] 88 % of control | dose: 400.0 mg/kg/injection, schedule: Q04DX003 (ip), vehicle: Klucel (hydroxypropylcellulose) (HPC) 98 % of control

NCc1cc(=O)[nH]c(=O)[nH]1
inactive: [9] 104 % of control | [11] 89 % of control

Cc1cccc(Cl)c1NC(=O)c1cccc([N+](=O)[O-])c1
inactive: [3] 96 % of control | [4] 90 % of control | [5] 93 % of control

CN(Cc1ccccc1)C(=O)NC1CCCCC1
inactive: dose: 25.0 mg/kg/injection, schedule: Q01DX009 (ip), vehicle: saline 100 % of control and 101 % of control | dose: 50.0 mg/kg/injection, schedule: Q01DX009 (ip), vehicle: saline 100 % of control and 101 % of control | [12] 102 % of control | [15] 97 % of control and 100 % of control | [2] 94 % of control and 96 % of control | [6] 101 % of control | [13] 94 % of control and 105 % of control | dose: 200.0 mg/kg/injection, schedule: Q01DX009 (ip), vehicle: saline 96 % of control and 97 % of control | [21] 96 % of control and 100 % of control | [7] 102 % of control | [18] 95 % of control and 105 % of control | [22] 100 % of control and 92 % of control | [8] 95 % of control

CCOC(=O)c1c[nH]c2nc(N)ccc2c1=O
inactive: dose: 50.0 mg/kg/injection, schedule: Q01DX001 (ip), vehicle: saline 104 % of control | [14] 106 % of control | [16] 106 % of control | [17] 101 % of control
